Assay results from patent publication US20220280530A1, “PREVENTION OR TREATMENT OF DISEASES AND DISORDERS ASSOCIATED WITH TISSUE DAMAGE” (priority 2019, published 2022).
Read-outs that look alike come from different tables or passages of the source.

What was measured:
[1] = molecular target: MST1 (Homo sapiens, UniProt Q13043); test: MST1 protein kinase inhibition (Table 5); type: biochemical
[2] = molecular target: T1, MST2 (Homo sapiens, UniProt Q13188); test: MST2 protein kinase inhibition (Table 5); type: biochemical
T1 sequence (Q13188 1-491): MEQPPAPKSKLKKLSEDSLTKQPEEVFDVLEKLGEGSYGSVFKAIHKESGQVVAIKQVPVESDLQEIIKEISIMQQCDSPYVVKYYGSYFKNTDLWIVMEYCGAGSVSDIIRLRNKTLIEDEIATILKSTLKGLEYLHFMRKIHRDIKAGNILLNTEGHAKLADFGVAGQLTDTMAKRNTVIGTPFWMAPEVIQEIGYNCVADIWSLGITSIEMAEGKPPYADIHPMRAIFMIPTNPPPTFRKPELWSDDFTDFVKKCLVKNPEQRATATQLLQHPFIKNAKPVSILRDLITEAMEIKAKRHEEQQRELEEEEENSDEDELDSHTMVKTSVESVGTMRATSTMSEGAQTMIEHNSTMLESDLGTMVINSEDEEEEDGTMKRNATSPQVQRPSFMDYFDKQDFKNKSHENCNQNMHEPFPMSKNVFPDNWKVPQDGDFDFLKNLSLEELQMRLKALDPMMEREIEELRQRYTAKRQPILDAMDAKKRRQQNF

[3] = system: THP-1 cells / TNFα-activated ECs; test: Adhesion of THP-1 cells to TNFα-activated endothelial cells; type: cell-based, human; settings: FIGS. 19A-19B, 20A-20B
Description: To substantiate the functional significance of inhibitors of MST1/2 protein kinases in activating endothelial cells, the monocyte adhesion to the activated endothelial cells was further examined.
Cell adhesion was assessed as the follows: THP1 cells were labeled with calcein-AM (Invitrogen) according to the instructions of the manufacturer. After the HUVECs were stimulated and washed, 2.5×10^5 calcein-labeled THP1 cells were added to each well and allowed to interact with MST1/2 inhibitors for 60 minutes at […]. Unbound cells were removed by gently washing with complete medium, and the number of attached cells was counted on an inverted fluorescent microscope.

[4] = system: VCAM-1; test: VCAM-1 expression in stimulated HUVECs (western blot); type: cell-based, human; settings: for IC50: Homo sapiens, HUVEC, read-out: IC50 of inhibition of VCAM-1 expression
[5] = system: C57B1/6 mice, MCAO-induced cerebral ischemia; test: Mouse cerebral ischemia model by transient middle cerebral artery occlusion (MCAO); type: in vivo
Description: To verify the protective effect of the inhibitors of MST1/2 protein kinases on the brain injury after ischemic stroke, X1 was administered to mouse cerebral ischemia model induced by transient middle cerebral artery occlusion (MCAO). Briefly, 8-12 week-old C57B1/6 mice (both male and female mice) were intraperitoneal injection with vehicle (DMSO) or 2 mg/kg X1 twice at 24 hours and 3 hours prior to MCAO procedure respectively. Mice were then anesthetized with 2.0% isoflurane, with their body temperature maintained at 37° C. with a heating pad. Following a midline cervical skin incision, the proximal right common carotid artery and the right external carotid artery were ligated. […]
Real-time cerebral blood flow was monitored using a laser speckle contrast imager (PeriCam PSI HR System, Perimed, Sweden) to confirm occlusion of the MCAO and reperfusion after removal of the filament. […] Brain sections were stained with 2% 2,3,5-Triphenyltetrazolium chloride (T8877; Sigma-Aldrich, St. Louis, Mo.) and scanned (HP Scanjet G4010) to allow quantification of infarcted and uninjured brain tissue. […]
In addition, neurological function of the MCAO-induced cerebral ischemia model mice was evaluated after treatment with the MST1/2 protein kinases inhibitor X1. […]

[6] = system: mice treated with DOX; test: In vivo cardio protection: heart function and atrophy induced by DOX in mice; settings: by week four, inhibitors daily i.p., FIG. 11
Description: In vivo cardio protection in mice by the inhibitors of MST1/2 protein kinases was verified by measuring heart function and atrophy induced by DOX (FIG. 8). Two inhibitors X1 (drug 1) and Y1 (drug 2) were administered to the mice daily by i.p. during the entire study period. After administration of the inhibitors for six days, DOX was administered every two days by i.p. for four times. Blood samples were collected periodically from the mice by […]. EdU was administered to the mice during the final four days of the study (FIG. 8).
Further, the mice were disected at the death or at the end of the study and the weight of the hearts was measured.
The heart function measured as EF % (ejection fraction) was impaired by DOX over the four-week study period.

[7] = system: ICAM-1; test: ICAM-1 expression in stimulated HUVECs (western blot); type: cell-based, human; settings: 1 μM, 1 hour pretreatment, TNF-α (20 ng/mL) and IL-1β (10 ng/mL) 12 hours; FIG. 15A
[8] = system: inflammatory cytokines in HUVEC, such as MCP-1 and IL-6; test: mRNA levels of inflammatory cytokines in HUVEC after TNFα stimulation (qPCR); type: cell-based, human; settings: in response to TNFα stimulation, FIGS. 17A-17D, 18A-18D
[9] = system: inflammatory cytokines in the mouse lung; test: Murine septic model (LPS): inflammatory cytokine mRNA in mouse lung (real-time PCR); type: in vivo, mice; settings: LPS 2.5 mg/kg i.p.; pretreated twice at 24 hrs and 3 hrs prior; 6 hrs after LPS; FIGS. 21A-21D
Description: In this regard, the mice were pretreated with X1 twice at 24 hrs and 3 hrs, respectively, prior to the injection of lipopolysaccharides (LPS). 6 hrs after injection of LPS to induce the sepsis model, the expression of inflammatory cytokines in the mouse lung was determined by real-time PCR.

Chain of MST1 (Q13043 whole entry, looked up): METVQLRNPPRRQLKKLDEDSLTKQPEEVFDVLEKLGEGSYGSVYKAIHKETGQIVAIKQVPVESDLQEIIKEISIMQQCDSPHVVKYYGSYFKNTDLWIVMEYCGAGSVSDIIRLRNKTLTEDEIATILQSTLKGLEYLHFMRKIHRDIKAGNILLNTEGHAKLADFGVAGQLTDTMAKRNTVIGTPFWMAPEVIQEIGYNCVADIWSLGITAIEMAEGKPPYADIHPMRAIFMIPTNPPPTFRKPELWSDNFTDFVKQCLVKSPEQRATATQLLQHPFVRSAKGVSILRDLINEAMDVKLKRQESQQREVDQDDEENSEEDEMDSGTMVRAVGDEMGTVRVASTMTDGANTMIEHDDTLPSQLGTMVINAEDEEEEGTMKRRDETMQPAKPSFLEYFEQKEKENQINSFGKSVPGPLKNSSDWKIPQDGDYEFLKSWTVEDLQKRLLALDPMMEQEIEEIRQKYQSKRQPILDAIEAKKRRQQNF

IC50 [2] [µM] | Compound | IC50 [1] [µM] | other results
2.75 | CN1C(=O)c2sccc2N(C)c2nc(Nc3ccc(N)cc3)ncc21 [II-14] |  | IC50 ([1]; read-out: MST1 IC50): 2.16 µM
> 30 | CN1C(=O)c2sccc2N(C)c2nc(Nc3cc[nH]n3)ncc21 [II-27] |  | 
1.8 | CCN1CCN(Cc2ccc(Nc3ncc4c(n3)N(C)c3ccccc3C(=O)N4C)cc2C(F)(F)F)CC1 [IC-5] |  | IC50 ([1]; read-out: MST1 IC50): 1.91 µM
 | CN1C(=O)c2ccc(Cl)cc2N(C)c2nc(Nc3ccc(S(C)(=O)=O)cc3)ncc21 [IH-14] | > 30 | 
 | [2H]c1ccc2c(c1)N(C)c1nc(Nc3ccc(S(N)(=O)=O)cc3)ncc1N(C)C2=O [IH-7] | 3.12 | 
> 30 | CC(C)N1c2ccccc2C(=O)N(C)c2cnc(Nc3cccc(S(N)(=O)=O)c3)nc21 [IE-2] |  | 
 | CN1C(=O)c2sccc2N(C)c2nc(Nc3ccc(S(N)(=O)=O)cc3)ncc21 [X1] |  | adhesion of THP-1 cells to TNFα-activated ECs [3]: markedly inhibited; VCAM-1 expression ([4]; 1 μM, 1 hour pretreatment, TNF-α (20 ng/mL) and IL-1β (10 ng/mL) 12 hours, FIG. 15A): substantially inhibited; IC50 [4]: 1290 nM; infarct size ([5]; 2 mg/kg i.p. twice, 24 hours and 3 hours prior to MCAO, 60 minutes ischemia, 23 hours reperfusion, FIGS. 13, 14A): significantly attenuated; neurological function (0-4-point neurological score) ([5]; MCAO mice, in comparison with vehicle treatment, FIG. 14B): reducing the damages to neurological functions; heart function measured as EF % (ejection fraction) [6]: reduced the EF % decrease; expression of ICAM-1 [7]: barely affected; mRNA levels of inflammatory cytokines in HUVEC, such as MCP-1 and IL-6 [8]: markedly inhibited; mRNA level of ICAM-1 in mouse lung [9]: markedly suppressed; mRNA level of IL-6 in mouse lung [9]: markedly suppressed; mRNA level of MCP-1 in mouse lung [9]: markedly suppressed; mRNA level of VCAM-1 in mouse lung [9]: markedly suppressed
0.11 | CCN1c2ccccc2C(=O)N(C)c2cnc(Nc3ccc(S(N)(=O)=O)cc3)nc21 [ID-1] |  | IC50 ([1]; read-out: MST1 IC50): 0.04 µM
 | CN1C(=O)c2ccccc2N(C)c2nc(Nc3ccc(S(N)(=O)=O)cc3)ncc21 [Y1] |  | adhesion of THP-1 cells to TNFα-activated ECs [3]: markedly inhibited; IC50 ([4]; HUVECs, FIGS. 15B, 16A-16B): 490 nM; heart function measured as EF % (ejection fraction) [6]: reduced the EF % decrease; mRNA levels of inflammatory cytokines in HUVEC, such as MCP-1 and IL-6 [8]: markedly inhibited
> 30 | CN1C(=O)c2sccc2N(C)c2nc(Nc3cccc(S(N)(=O)=O)c3)ncc21 [II-2] |  | 
2.45 | CC(C)N1c2ccccc2C(=O)N(C)c2cnc(Nc3ccc(S(N)(=O)=O)cc3)nc21 [IE-1] |  | IC50 ([1]; read-out: MST1 IC50): 0.83 µM
> 30 | CCN1c2ccccc2C(=O)N(C)c2cnc(Nc3cccc(S(N)(=O)=O)c3)nc21 [ID-3] |  | 
> 30 | CN1CCN(S(=O)(=O)c2ccc(Nc3ncc4c(n3)N(C3CCCC3)c3ccccc3C(=O)N4C)cc2)CC1 [IF-4] |  | 
> 30 | CCN1CCN(Cc2ccc(Nc3ncc4c(n3)N(C3CCCC3)c3ccccc3C(=O)N4C)cc2C(F)(F)F)CC1 [IF-6] |  | 
> 30 | CN1C(=O)c2ccccc2N(C)c2nc(Nc3cccc(S(N)(=O)=O)c3)ncc21 [IC-4] | > 30 | 
> 30 | CN1C(=O)c2cc(Cl)ccc2N(C)c2nc(Nc3ccc(S(N)(=O)=O)cc3)ncc21 [IH-10] |  | 

Compound | IC50 [2] [µM] | IC50 [1] [µM] | other results
Cc1ccc2c(c1)C(=O)N(C)c1cnc(Nc3ccc(S(C)(=O)=O)cc3)nc1N2C [IH-3] | > 30 | > 30 | 
NS(=O)(=O)c1ccc(Nc2ncc3c(n2)N(C2CCCC2)c2ccccc2C(=O)N3)cc1 [IB-1] | > 30 | > 30 | 
CN1C(=O)c2cccc3c2N(CC3)c2nc(Nc3cccc(S(N)(=O)=O)c3)ncc21 [IV-2] | > 30 | > 30 | 
COc1cc(N2CCN(C)CC2)ccc1Nc1ncc2c(n1)N(C)c1ccsc1C(=O)N2C [II-16] | > 30 | > 30 | 
CN1C(=O)c2sccc2N(C)c2nc(Nc3ccc([N+](=O)[O-])cc3)ncc21 [II-11] | > 30 | > 30 | 
COc1cc(N2CCC(O)CC2)ccc1Nc1ncc2c(n1)N(C)c1ccsc1C(=O)N2C [II-22] | > 30 | > 30 | 
CN1C(=O)c2ccccc2Nc2nc(Nc3cccc(S(N)(=O)=O)c3)ncc21 [IG-3] | > 30 | > 30 | 
CN1c2ccccc2C(=O)Nc2cnc(Nc3ccc(NS(C)(=O)=O)cc3)nc21 [IA-6] | > 30 | > 30 | 
CN1C(=O)c2ccccc2N(C2CCCC2)c2nc(Nc3cccc(S(N)(=O)=O)c3)ncc21 [IF-5] | > 30 | > 30 | 
Cc1ccc2c(c1)C(=O)N(C)c1cnc(Nc3ccc(S(N)(=O)=O)cc3)nc1N2C [IH-6] | > 30 | > 30 | 
